Test results: ChEMBL document CHEMBL4421730, “Synthetic compounds and derivatives as modulators of smoking or nicotine ingestion and lung cancer” (2013)
Active and inactive are the calls of the source. The rule behind the calls is not given here.

Experiments:
Cytochrome P450 2A6 [1] = molecular target: T1, Cytochrome P450 2A6 (Homo sapiens, UniProt P11509); assay: Binding affinity to synthetic N-terminal truncated CYP2A6 (unknown origin) assessed as occurrence of type-1 binding by spectral interaction analysis
T1 sequence (P11509 whole entry): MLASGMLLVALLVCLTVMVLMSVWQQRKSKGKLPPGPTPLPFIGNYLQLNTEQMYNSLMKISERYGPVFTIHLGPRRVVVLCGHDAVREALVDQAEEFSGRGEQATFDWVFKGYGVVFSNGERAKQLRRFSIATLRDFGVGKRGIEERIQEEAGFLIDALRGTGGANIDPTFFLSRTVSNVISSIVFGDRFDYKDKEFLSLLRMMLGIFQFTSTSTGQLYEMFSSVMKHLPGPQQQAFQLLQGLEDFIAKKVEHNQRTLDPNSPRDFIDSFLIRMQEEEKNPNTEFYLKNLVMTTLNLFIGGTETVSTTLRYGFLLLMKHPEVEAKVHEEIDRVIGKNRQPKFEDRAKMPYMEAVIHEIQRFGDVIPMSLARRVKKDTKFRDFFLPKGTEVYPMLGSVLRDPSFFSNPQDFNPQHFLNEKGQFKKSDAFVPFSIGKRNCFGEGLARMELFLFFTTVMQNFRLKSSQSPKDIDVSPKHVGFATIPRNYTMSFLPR

Cytochrome P450 2A6 [2] = molecular target: T1, Cytochrome P450 2A6; assay: (§1) Binding affinity to synthetic N-terminal truncated CYP2A6 (unknown origin) assessed as effect on type-1 spectral shift lambda(min) by measuring displacement of coumarin at 100 uM preincubated with […] coumarin by spectral interaction analysis; conditions: 100 µM
Cytochrome P450 2A6 [3] = molecular target: T1, Cytochrome P450 2A6; assay: (§2) Binding affinity to synthetic N-terminal truncated CYP2A6 (unknown origin) assessed as effect on type-1 spectral shift lambda(max) by measuring displacement of coumarin at 100 uM preincubated with […] coumarin by spectral interaction analysis; conditions: 100 µM
[4] = molecular target: Acetylcholine-binding protein (Lymnaea stagnalis) (UniProt P58154); assay: Binding affinity to Lymnaea stagnalis nicotinic acetylcholine receptor by fluorescence based assay; assay type: single protein
Sequence of Acetylcholine-binding protein (Lymnaea stagnalis) (P58154 whole entry, the tested form may be a part): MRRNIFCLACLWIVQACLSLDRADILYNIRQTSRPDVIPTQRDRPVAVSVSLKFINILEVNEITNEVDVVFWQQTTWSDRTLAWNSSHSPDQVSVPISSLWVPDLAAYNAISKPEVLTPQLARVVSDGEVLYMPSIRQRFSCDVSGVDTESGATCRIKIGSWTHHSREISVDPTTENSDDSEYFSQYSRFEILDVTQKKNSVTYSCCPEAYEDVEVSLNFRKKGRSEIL

CYP2A6 [5] = molecular target: T2, CYP2A6 (Homo sapiens, UniProt P11509); assay: as §1; conditions: synthetic N-terminal truncated CYP2A6, probe coumarin, […]
T2 sequence (P11509 whole entry): T1 sequence (P11509 whole entry)

CYP2A6 [6] = molecular target: T2, CYP2A6; assay: as §2; conditions: synthetic N-terminal truncated CYP2A6, probe coumarin, […]
Cytochrome P450 2A6 [7] = molecular target: T1, Cytochrome P450 2A6; assay: Inhibition of human CYP2A6 expressed in insect cell membranes assessed as reduction in enzyme-mediated coumarin 7-hydroxylation at 400 uM in presence of glucose-6-phosphate, glucose-6-phosphate dehydrogenase and NADPH-generating system by fluorometry
[8] = molecular target: Acetylcholine-binding protein (Lymnaea stagnalis) (UniProt P58154); assay: Displacement of [125I]bungarotoxin from Lymnaea stagnalis nicotinic acetylcholine receptor assessed as residual radioligand binding relative to control
Rattus norvegicus [9] = assay: Reduction of nicotine self-administration in nicotine-addicted Wistar rat at 16 mg/kg dosed on day 50 following self-administration of nicotine across 23 hrs period each day for 49 days and measured on day 51 and 52 relative to control; assay type: ADME, organism-based; conditions: in vivo
Rattus norvegicus [10] = assay: Reduction of nicotine self-administration in nicotine-addicted Wistar rat at 15 mg/kg dosed on day 50 following self-administration of nicotine across 23 hrs period each day for 49 days relative to control; assay type: ADME, organism-based; set-up: scale not given: the % may be the effect or the level left; conditions: in vivo
Rattus norvegicus [11] = assay: Reduction of nicotine self-administration in nicotine-addicted Wistar rat at 15 mg/kg dosed on day 50 following self-administration of nicotine across 23 hrs period each day for 49 days and measured on day 51 and 52 relative to control; assay type: ADME, organism-based; conditions: in vivo

In the case of CC(=O)SCc1ccc(-c2cccnc2)o1, the Activity (Cytochrome P450 2A6 [1]) was “Not Active”, the Activity (Cytochrome P450 2A6 [2]) was “Not Active” and the Activity (Cytochrome P450 2A6 [3]) was “Not Active”.

In the case of Cc1cn(-c2cccnc2)cn1, the Activity [4] was “Active”.

In the case of Cc1cscc1-c1cccnc1, the Activity [4] was “Active”.

For CCC1CCC(c2cccnc2)O1 (configuration not stated), the Activity [4] was “inactive”.

With Cc1cscc1-c1ccccc1 the Activity (Cytochrome P450 2A6 [1]) was “Active”.

Cc1csc(-c2cccnc2)n1 was tested, and the Activity (Cytochrome P450 2A6 [1]) was “Active”.

With SCc1ccc(-c2cccnc2)o1 the Activity (Cytochrome P450 2A6 [1]) was “Not Active”, the inhibition at 100 µM (CYP2A6 [5]) was 100% and the inhibition at 100 µM (CYP2A6 [6]) was 100%.

c1cncc(-c2cccnc2)c1 was tested, and the Activity [4] was “Active”.

With Cc1ccsc1-c1cccnc1 the Activity (Cytochrome P450 2A6 [1]) was “Active”.

With Cc1ccsc1-c1ccc(F)nc1 the Activity (Cytochrome P450 2A6 [1]) was “Active”.

In the case of CN(C)CC#Cc1cccnc1, the Activity (Cytochrome P450 2A6 [1]) was “Not Active”.

In the case of c1ccc(-c2ccsc2)cc1, the Activity (Cytochrome P450 2A6 [1]) was “Active”.

c1cncc(-n2cnnn2)c1 was tested, and the “inhibition (INH)” value (Cytochrome P450 2A6 [7]) was “Active”.

For BrCC1CCC(c2cccnc2)O1 (configuration not stated), the Activity [4] was “Active”.

OCC1CCC(c2cccnc2)O1 (configuration not stated) was tested, and the Activity [4] was “inactive”.

In the case of NC[C@@H]1CC[C@@H](c2cccnc2)O1 (relative stereo), the Activity [4] was “Active” and the Activity [8] was 25%.

For NCC1CCC(c2cccnc2)O1 (mixture of isomers), the Activity [4] was “Active” and the Activity [8] was 30%.

Cl.Cl.NCc1ccc(-c2cccnc2)o1 was tested, and the Activity (Rattus norvegicus [9]) was “Toxic”.

With O=Cc1ccc(-c2cccnc2)o1 the Activity (Cytochrome P450 2A6 [1]) was “Not Active”, the inhibition at 100 µM (CYP2A6 [5]) was 100% and the inhibition at 100 µM (CYP2A6 [6]) was 100%.

For N[C@@H]1C[C@H]1c1ccccc1.N[C@H]1C[C@@H]1c1ccccc1, the Activity [4] was “Active”.

Cl.Cl.c1cncc(-c2c[nH]cn2)c1 was tested, and the Activity [4] was “inactive”, the Activity (Rattus norvegicus [10]) was 40% and the Activity (Rattus norvegicus [11]) was “Toxic”.

In the case of c1cncc(-c2cccs2)c1, the Activity [4] was “Active”.
